From article PMC4621027, “Hydroxyethylamine Based Phthalimides as New Class of Plasmepsin Hits: Design, Synthesis and Antimalarial Evaluation” (PLoS ONE, 2015)
Like-named read-outs stand apart in the source and are kept apart here.

Columns and labels:
P. falciparum 3D7 = experiment: SYBR green I-based fluorescence parasite growth assay, CQ sensitive strain; type: cell-based, Plasmodium falciparum; conditions: read-out: IC50 values ± SE, growth of P. falciparum (3D7)
Method: (§1) For compound screening, SYBR green I-based fluorescence assay was setup as described in literature. Sorbitol synchronized parasites were incubated under normal culture conditions at 2% hematocrit and 1% parasitemia in the absence or presence of increasing concentrations of the compounds. Chloroquine (CQ) was used as positive control, while 0.4% DMSO was used as the negative control.
(§2) We have studied the antimalarial effect of all the listed molecules in […] culture conditions in order to identify a putative lead structure for pharmacological applications.

[1] = tested on: CQ resistant strain (7GB) of P. falciparum; experiment: Antiplasmodial activity against CQ resistant strain; type: cell-based; conditions: Plasmodium falciparum
Method: as §1, §2

human erythrocytes = experiment: In vitro hemolytic activity; type: cell-based; conditions: 3.125 to 100 μg/mL, 37°C, 1 h
Method: In vitro hemolytic activity of all synthesized compounds was performed as per reported protocol with slight modifications. In brief, human erythrocytes were collected from Rotary Blood Bank (New Delhi, India) and suspended in phosphate buffer saline (PBS). The suspension (2% hemotocrit) was incubated with different concentrations (3.125 to 100 μg/mL) of the entire compound series at 37°C for 1 h. After 1 h, erythrocytes were pelleted at 3000 g for 10 min (Remi, R-8C/BL) at 4°C. The supernatant was collected and OD450 was determined spectrophotometrically (Biotek, ELx800 UV spectrophotometer) using PBS as a negative control and Triton X-100 for completely lysing the cells. The percent hemolysis was calculated using the following formula: Percent hemolysis = […]. The percent hemolysis was plotted against concentration of compounds for determining the dose cytotoxic to erythrocytes.

[2] = MTT-colorimetric cytotoxicity assay; type: cell-based; conditions: human, MCF-7 cells, read-out: IC50, cytotoxicity on MCF7 cell line
Method: (§3) Phthalimides were serially diluted in DMSO in a final concentration of 100, 25 and 6.25 μg mL^-1 and evaluated for their % cytotoxicity by using MTT-colorimetric assay on MCF-7 cell line. Cell lines were maintained in RPMI-1640 (Hi-Media, Mumbai) medium supplemented with heat inactivated FCS (10% v/v) and 100 U/mL of streptomycin and were cultured in a humidified 5% CO2 atmosphere at 37°C. 100 μL (~2×10^5) of cells were seeded into wells (per well) on a 96-well plate (Nunc, Maxi Sorp) and incubated for 16 h for adherence. After 16 h, media was aspirated from the wells and the cells were washed with RPMI-1640 without FCS. 75 μL of each compound and control was added to separate wells containing cell lines and incubated at 37°C in humidified 5% CO2 atmosphere for 4 h. After 4 h, media containing the compounds was replaced with 200 μL of normal RPMI-1640 and cells were further incubated for 48 h under same conditions. After 48 h media was replaced by 200 μL of MTT (3-(4, 5-dimethylthiazol-2-yl)-2, 5-diphenyltetrazolium bromide, 0.5 mg/mL of RPMI-1640) and further incubated for 2 h. The formazan crystals were formed and suspended in 100 μL iso-propanol containing 0.06 M HCl and 0.5% SDS. Aliquots were drawn from each well and colour intensity was measured spectrophotometrically in an ELISA plate reader (Biotek, ELx800) at 540 nm. Untreated cells were taken as control with 100% viability and cells without addition of MTT were used as blank. The relative cell viability (%) compared to control cells was calculated by [abs] sample/ [abs] control × 100.

MCF-7 cell line = experiment: MTT-colorimetric cytotoxicity assay; type: cell-based; conditions: 100, 25 and 6.25 μg mL^-1
Method: as §3

plasmepsin 2 = target: T1, plasmepsin 2 (Plasmodium falciparum, UniProt P46925); experiment: Inhibition of plasmepsin 2, chromogenic substrate cleavage assay; type: biochemical; conditions: pH 4.5; fit to competitive inhibition scheme
T1 construct: preincubated at the assay pH for 3 minutes to allow conversion from the proenzyme to the mature enzyme form; made in house
T1 sequence (P46925 125-453): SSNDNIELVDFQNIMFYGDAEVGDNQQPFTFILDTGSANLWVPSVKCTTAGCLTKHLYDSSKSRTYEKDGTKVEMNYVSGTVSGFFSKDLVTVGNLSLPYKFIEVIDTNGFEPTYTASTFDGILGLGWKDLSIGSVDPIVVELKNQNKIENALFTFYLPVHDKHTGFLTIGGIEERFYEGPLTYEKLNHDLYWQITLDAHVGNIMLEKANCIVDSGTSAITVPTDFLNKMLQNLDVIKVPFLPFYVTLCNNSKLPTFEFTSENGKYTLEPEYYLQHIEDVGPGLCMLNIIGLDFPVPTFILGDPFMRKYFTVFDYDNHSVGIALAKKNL
Method: (§4) Synthetic compounds were dissolved in DMSO to make stock solutions at concentrations around 100 μM. Dilutions from these stocks were made to obtain solutions to use for studying inhibition of the plasmepsins 2 and 4 from P. falciparum. Assays of enzymatic activity were typically done using 50 micromolar substrate and 50 nanomolar enzyme at pH 4.5. The protein samples were preincubated at the assay pH for 3 minutes to allow conversion from the proenzyme to the mature enzyme form, then immediately mixed with inhibitor solutions and incubated for a further 5 minutes to permit the enzyme-inhibitor complex to form. Following this, the samples were mixed with samples of the substrate to yield a 50 μM substrate concentration in the final assay solution and immediately placed in a recording spectrophotometer to follow the reaction. The cleavage of the chromogenic substrate yields a shift in absorbance that can be quantified by the decrease in absorbance at 300 nm. Compounds were mixed with the enzymes at concentrations ranging from 10 to 50 μM range and the effect on enzyme activity studied in duplicate assays.
(§5) A second inhibitor concentration was chosen that would yield approximately 30–35% inhibition and a third inhibitor concentration was chosen to yield approximately 65–70% inhibition. The three resulting curves of initial velocity versus substrate concentration were fit simultaneously to the competitive inhibition scheme; this yields values of Vmax, Km, and Ki.
(§6) Plasmepsins, a family of aspartic proteases of malaria parasite, are known to participate in a wide variety of cellular processes essential for parasite survival. […] Similarly, plasmepsin 4 from P. falciparum can be prepared and activated. Catalytic activity of the plasmepsins can be studied by following the change in absorbance at 300 nm as cleavage occur between a Phe and a nitroPhe in the synthetic substrate, Lys-Pro-Ile-Glu-Phe-NO2Phe-Arg-Leu. The compounds listed in Tables 1, 2 and 3 were assayed for inhibition by preincubating with differnt concentrations of the compound with equal aliquots of either plasmepsin 2 or 4 followed by mixing with the assay substrate.

plasmepsin 4 = target: T2, plasmepsin 4 (Plasmodium falciparum, UniProt Q8IM16); experiment: Inhibition of plasmepsin 4, chromogenic substrate cleavage assay; type: biochemical; conditions: pH 4.5; fit to competitive inhibition scheme
T2 construct: preincubated at the assay pH for 3 minutes to allow conversion from the proenzyme to the mature enzyme form; made in house
T2 sequence (Q8IM16 122-449): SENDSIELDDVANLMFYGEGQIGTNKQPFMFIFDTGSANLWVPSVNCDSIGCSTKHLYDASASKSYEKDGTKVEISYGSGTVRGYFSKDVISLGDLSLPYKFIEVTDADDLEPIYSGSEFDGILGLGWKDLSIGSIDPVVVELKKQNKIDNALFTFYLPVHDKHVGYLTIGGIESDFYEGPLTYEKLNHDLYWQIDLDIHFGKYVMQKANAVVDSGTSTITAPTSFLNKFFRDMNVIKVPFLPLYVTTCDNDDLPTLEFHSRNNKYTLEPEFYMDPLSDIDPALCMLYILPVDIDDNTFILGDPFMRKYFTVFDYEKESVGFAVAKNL
Method: as §4, §5, §6

[3] = Plasmodium falciparum, CQ sensitive strain 3D7, 48 h incubation
[4] = values in brackets, 48 h incubation, read-out: IC50 values ± SE, CQ resistant strain (7GB) (converted)

C[C@@H]1CC[C@H]2[C@@H](C)C(=O)O[C@@H]3O[C@@]4(C)CC[C@@H]1[C@]32OO4 [ART, reference compound]
IC50 (P. falciparum 3D7; CQ sensitive strain 3D7, 48 h incubation): 0.021 µM

CCN(CC)CCCC(C)Nc1ccnc2cc(Cl)ccc12 (centres unmarked) [CQ, Chloroquine, reference compound]
IC50 ([1]; 48 h, read-out: IC50 values ± SE, CQ resistant strain (7GB)): 1.32 µM | IC50 (P. falciparum 3D7; Plasmodium falciparum, 3D7, 48 h): 0.059 µM

CN1CCN(C[C@H](O)[C@@H](Cc2ccccc2)NC(=O)OC(C)(C)C)CC1 [Compound 5a]
hemolysis of human erythrocytes (in words) (human erythrocytes): least hemotoxic | IC50 at 4 h [2]: > 8 µM | IC50 (P. falciparum 3D7; [3]): 5.88 ± 0.23 µM

CCN1CCN(C[C@H](O)[C@@H](Cc2ccccc2)NC(=O)OC(C)(C)C)CC1 [Compound 5b]
melting point: 89 to 91 °C | hemolysis of human erythrocytes (in words) (human erythrocytes): highest hemotoxicity | IC50 (P. falciparum 3D7; [3]): 5.4 ± 0.06 µM

CC(C)(C)OC(=O)N[C@H](Cc1ccccc1)[C@@H](O)CN1CCN(Cc2ccc(F)cc2)CC1 [Compound 5c]
melting point: 108 to 110 °C | IC50 at 4 h [2]: > 8 µM | IC50 (P. falciparum 3D7; [3]): 2.56 ± 0.06 µM

CC(C)(C)OC(=O)N[C@H](Cc1ccccc1)[C@@H](O)CN1CCN(Cc2ccc(Br)cc2)CC1 [Compound 5d]
melting point: 111 to 114 °C | IC50 (P. falciparum 3D7; [3]): 4.9 ± 0.01 µM

CC(C)(C)OC(=O)N[C@H](Cc1ccccc1)[C@@H](O)CN1CCN(C[C@H](O)[C@@H](Cc2ccccc2)NC(=O)OC(C)(C)C)CC1 [Compound 5f]
cytotoxic effect on MCF7 cell line (in words) (MCF-7 cell line): maximal toxicity | IC50 (P. falciparum 3D7; [3]): 3.11 ± 0.11 µM

CC(C)C[C@@H](C(=O)N[C@H](Cc1ccccc1)[C@@H](O)CN1CCN(C)CC1)N1C(=O)c2ccccc2C1=O [Compound 6a]
melting point: 141 to 143 °C | IC50 (P. falciparum 3D7; [3]): 4.61 ± 0.06 µM

CN1CCN(C[C@H](O)[C@@H](Cc2ccccc2)NC(=O)[C@H](Cc2ccccc2)N2C(=O)c3ccccc3C2=O)CC1 [Compound 6b]
melting point: 101 to 103 °C | IC50 (P. falciparum 3D7; [3]): 3.41 ± 0.03 µM

CC(C)[C@@H](C(=O)N[C@H](Cc1ccccc1)[C@@H](O)CN1CCN(C)CC1)N1C(=O)c2ccccc2C1=O [Compound 6c]
melting point: 91 to 93 °C | IC50 (P. falciparum 3D7; [3]): 4.58 ± 0.04 µM

CC[C@@H](C)[C@@H](C(=O)N[C@H](Cc1ccccc1)[C@@H](O)CN1CCN(C)CC1)N1C(=O)c2ccccc2C1=O [Compound 6d]
melting point: 104 to 106 °C | hemolysis of human erythrocytes (in words) (human erythrocytes): lower hemolysis | IC50 (P. falciparum 3D7; [3]): 6.33 ± 0.13 µM

CCN1CCN(C[C@H](O)[C@@H](Cc2ccccc2)NC(=O)[C@H](CC(C)C)N2C(=O)c3ccccc3C2=O)CC1 [Compound 6e]
melting point: 117 to 119 °C | IC50 (P. falciparum 3D7; [3]): 2.13 ± 0.02 µM

CCN1CCN(C[C@H](O)[C@@H](Cc2ccccc2)NC(=O)[C@H](Cc2ccccc2)N2C(=O)c3ccccc3C2=O)CC1 [Compound 6f]
melting point: 108 to 111 °C | IC50 (P. falciparum 3D7; [3]): 2.96 ± 0.43 µM

CCN1CCN(C[C@H](O)[C@@H](Cc2ccccc2)NC(=O)[C@H](C(C)C)N2C(=O)c3ccccc3C2=O)CC1 [Compound 6g]
melting point: 108 to 111 °C | IC50 (P. falciparum 3D7; [3]): 3.8 ± 0.03 µM

CC(C)C[C@@H](C(=O)N[C@H](Cc1ccccc1)[C@@H](O)CN1CCN(Cc2ccc(F)cc2)CC1)N1C(=O)c2ccccc2C1=O [Compound 6i]
melting point: 134 to 136 °C | IC50 (P. falciparum 3D7; [3]): 5.27 ± 0.06 µM

O=C(N[C@H](Cc1ccccc1)[C@@H](O)CN1CCN(Cc2ccc(F)cc2)CC1)[C@H](Cc1ccccc1)N1C(=O)c2ccccc2C1=O [Compound 6j]
melting point: 121 to 123 °C | IC50 [1, 4]: 3.6 µM | hemolysis of human erythrocytes (in words) (human erythrocytes): lower hemolysis | cytotoxic effect on MCF7 cell line (in words) (MCF-7 cell line): low cytotoxic effect | IC50 (P. falciparum 3D7; [3]): 1.33 ± 0.04 µM

CC(C)[C@@H](C(=O)N[C@H](Cc1ccccc1)[C@@H](O)CN1CCN(Cc2ccc(F)cc2)CC1)N1C(=O)c2ccccc2C1=O [Compound 6k]
melting point: 137 to 139 °C | IC50 at 4 h [2]: > 8 µM | IC50 (P. falciparum 3D7; [3]): 4.59 ± 0.07 µM

CC(C)C[C@@H](C(=O)N[C@H](Cc1ccccc1)[C@@H](O)CN1CCN(Cc2ccc(Br)cc2)CC1)N1C(=O)c2ccccc2C1=O [Compound 6m]
melting point: 143 to 145 °C | IC50 at 4 h [2]: > 8 µM | IC50 (P. falciparum 3D7; [3]): 6.96 ± 0.1 µM

O=C(N[C@H](Cc1ccccc1)[C@@H](O)CN1CCN(Cc2ccc(Br)cc2)CC1)[C@H](Cc1ccccc1)N1C(=O)c2ccccc2C1=O [Compound 6n]
melting point: 131 to 133 °C | IC50 (P. falciparum 3D7; [3]): 3.14 ± 0.02 µM

CC(C)[C@@H](C(=O)N[C@H](Cc1ccccc1)[C@@H](O)CN1CCN(Cc2ccc(Br)cc2)CC1)N1C(=O)c2ccccc2C1=O [Compound 6o]
IC50 [1, 4]: 3.01 µM | cytotoxic effect on MCF7 cell line (in words) (MCF-7 cell line): low cytotoxic effect | IC50 (P. falciparum 3D7; [3]): 1.25 ± 0.08 µM

O=C(N[C@H](Cc1ccccc1)[C@@H](O)CN1CCC(N2CCCCC2)CC1)[C@H](Cc1ccccc1)N1C(=O)c2ccccc2C1=O [Compound 6q]
melting point: 134 to 136 °C | IC50 at 4 h [2]: > 8 µM | IC50 (P. falciparum 3D7; [3]): 8.54 ± 0.04 µM

CC(C)C[C@@H](C(=O)N[C@H](Cc1ccccc1)[C@@H](O)CN1CCN(C[C@H](O)[C@@H](Cc2ccccc2)NC(=O)[C@H](CC(C)C)N2C(=O)c3ccccc3C2=O)CC1)N1C(=O)c2ccccc2C1=O [Compound 6r]
Ki (plasmepsin 2): 1.1 ± 0.1 µM | melting point: 141 to 143 °C | hemolysis of human erythrocytes (in words) (human erythrocytes): least hemotoxic | IC50 (P. falciparum 3D7; [3]): 5.12 ± 0.43 µM | Ki (plasmepsin 4): > 50 µM

CC(C)[C@@H](C(=O)N[C@H](Cc1ccccc1)[C@@H](O)CN1CCN(C[C@H](O)[C@@H](Cc2ccccc2)NC(=O)[C@H](C(C)C)N2C(=O)c3ccccc3C2=O)CC1)N1C(=O)c2ccccc2C1=O [Compound 6t]
Ki (plasmepsin 2): > 20 µM | melting point: 123 to 125 °C | IC50 (P. falciparum 3D7; [3]): 7.28 ± 0.43 µM | Ki (plasmepsin 4): 3.3 ± 0.3 µM

CCC(C)[C@@H](C(=O)N[C@H](Cc1ccccc1)[C@@H](O)CN1CCN(C[C@H](O)[C@@H](Cc2ccccc2)NC(=O)[C@H](C(C)CC)N2C(=O)c3ccccc3C2=O)CC1)N1C(=O)c2ccccc2C1=O (some centres unmarked) [Compound 6u]
Ki (plasmepsin 2): 0.99 ± 0.1 µM | melting point: 131 to 134 °C | IC50 (P. falciparum 3D7; [3]): 3.24 ± 0.06 µM | Ki (plasmepsin 4): > 50 µM
